Measured values: patent US10526316B2, “Quinoxaline and pyridopyrazine derivatives as PI3Kβ inhibitors” (Janssen Pharmaceutica NV, priority 2015, dated 2020)
Like-named read-outs stand apart in the source and are kept apart here.

What was measured:
[1] = biological target: T1, PI3Kβ (Homo sapiens, UniProt P42338); test: Enzyme binding assay (KINOMEscan, DiscoveRx)
T1 construct: purchased DiscoveRx Corporation, San Diego (contract service, KINOMEscan)
Experimental: (§1) Enzyme Binding Assays (KINOMEscan®)
Kinase enzyme binding affinities of compounds disclosed herein were determined using the KINOMEscan technology performed by DiscoveRx Corporation, San Diego, Calif., USA (www.kinomescan.com). Table A reports the obtained Kd values (nM), with the Kd being the inhibitor binding constant: […]

[2] = biological target: T2, PI3Kδ (Homo sapiens, UniProt O00329); test: Enzyme binding assay (KINOMEscan, DiscoveRx); settings: PIK3Cδ_h
T2 construct: purchased DiscoveRx Corporation, San Diego (contract service, KINOMEscan)
T2 sequence (O00329 1-1044): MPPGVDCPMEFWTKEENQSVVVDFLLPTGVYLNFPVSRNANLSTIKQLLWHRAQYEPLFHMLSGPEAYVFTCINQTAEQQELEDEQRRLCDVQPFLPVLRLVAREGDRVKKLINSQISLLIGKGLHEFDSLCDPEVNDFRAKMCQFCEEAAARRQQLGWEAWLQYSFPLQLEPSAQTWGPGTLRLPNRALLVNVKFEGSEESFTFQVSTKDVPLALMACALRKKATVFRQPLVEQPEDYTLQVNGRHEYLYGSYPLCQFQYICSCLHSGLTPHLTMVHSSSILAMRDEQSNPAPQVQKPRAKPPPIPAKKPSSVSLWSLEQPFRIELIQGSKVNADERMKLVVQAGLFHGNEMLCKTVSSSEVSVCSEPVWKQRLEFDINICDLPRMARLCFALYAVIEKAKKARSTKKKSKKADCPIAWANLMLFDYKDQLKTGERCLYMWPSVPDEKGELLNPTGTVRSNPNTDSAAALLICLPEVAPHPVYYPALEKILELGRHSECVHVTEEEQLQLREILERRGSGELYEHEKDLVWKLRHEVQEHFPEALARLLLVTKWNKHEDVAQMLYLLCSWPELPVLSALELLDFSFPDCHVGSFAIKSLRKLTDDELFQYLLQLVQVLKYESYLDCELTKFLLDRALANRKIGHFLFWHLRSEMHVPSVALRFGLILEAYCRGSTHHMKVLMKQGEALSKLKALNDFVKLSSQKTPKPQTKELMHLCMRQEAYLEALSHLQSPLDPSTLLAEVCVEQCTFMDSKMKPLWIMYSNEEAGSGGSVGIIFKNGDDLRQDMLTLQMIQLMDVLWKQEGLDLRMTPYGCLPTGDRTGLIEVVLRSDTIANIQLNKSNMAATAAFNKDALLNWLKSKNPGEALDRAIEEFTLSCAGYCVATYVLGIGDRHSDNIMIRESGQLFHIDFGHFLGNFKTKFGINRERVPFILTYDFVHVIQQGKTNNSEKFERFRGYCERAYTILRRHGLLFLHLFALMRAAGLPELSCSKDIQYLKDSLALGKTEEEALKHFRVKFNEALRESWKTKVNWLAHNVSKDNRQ
Experimental: as §1
(§2) Kinase enzyme binding affinities of compounds disclosed herein were determined using the KINOMEscan technology performed by DiscoveRx Corporation, San Diego, Calif., USA (www.kinomescan.com).

[3] = biological target: T3, kinase enzymes (Homo sapiens, UniProt P42336); test: Enzyme binding assay (KINOMEscan, DiscoveRx), further kinases of Table A; settings: PIK3Cα_h
T3 construct: purchased DiscoveRx Corporation, San Diego (contract service, KINOMEscan)
T3 sequence (P42336 whole entry): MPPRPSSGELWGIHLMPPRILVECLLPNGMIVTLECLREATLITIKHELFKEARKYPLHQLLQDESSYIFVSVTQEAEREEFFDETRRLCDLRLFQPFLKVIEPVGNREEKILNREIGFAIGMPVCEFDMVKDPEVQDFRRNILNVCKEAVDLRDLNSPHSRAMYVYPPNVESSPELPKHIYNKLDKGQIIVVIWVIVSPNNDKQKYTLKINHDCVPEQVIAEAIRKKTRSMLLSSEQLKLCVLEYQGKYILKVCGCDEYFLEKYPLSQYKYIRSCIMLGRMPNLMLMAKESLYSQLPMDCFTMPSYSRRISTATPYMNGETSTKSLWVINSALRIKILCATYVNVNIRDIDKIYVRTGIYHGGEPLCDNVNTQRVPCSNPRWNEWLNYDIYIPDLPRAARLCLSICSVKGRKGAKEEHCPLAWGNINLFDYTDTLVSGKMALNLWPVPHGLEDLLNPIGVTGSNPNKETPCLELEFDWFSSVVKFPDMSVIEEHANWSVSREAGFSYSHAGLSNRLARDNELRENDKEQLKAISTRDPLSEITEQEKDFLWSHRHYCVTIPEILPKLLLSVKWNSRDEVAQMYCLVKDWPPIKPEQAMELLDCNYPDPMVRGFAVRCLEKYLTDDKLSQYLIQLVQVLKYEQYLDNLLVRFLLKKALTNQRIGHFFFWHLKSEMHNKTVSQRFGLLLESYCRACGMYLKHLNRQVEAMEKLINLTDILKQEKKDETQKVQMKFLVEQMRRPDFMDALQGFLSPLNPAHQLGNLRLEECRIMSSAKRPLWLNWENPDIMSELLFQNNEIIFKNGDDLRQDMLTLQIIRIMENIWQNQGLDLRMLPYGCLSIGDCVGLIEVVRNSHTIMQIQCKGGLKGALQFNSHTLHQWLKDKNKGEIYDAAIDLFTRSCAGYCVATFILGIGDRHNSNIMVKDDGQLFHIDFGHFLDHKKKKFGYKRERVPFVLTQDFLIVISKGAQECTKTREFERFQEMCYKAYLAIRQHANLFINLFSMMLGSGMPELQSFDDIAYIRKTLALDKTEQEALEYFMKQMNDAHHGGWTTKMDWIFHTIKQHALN
Experimental: as §1, §2

[4] = biological target: T4, kinase enzymes (Homo sapiens, UniProt P42345); test: as above; settings: MTOR_h
T4 construct: purchased DiscoveRx Corporation, San Diego (contract service, KINOMEscan)
Experimental: as §1, §2

[5] = biological target: T5, kinase enzymes (Homo sapiens, UniProt P48736); test: as above; settings: PIK3Cγ_h
T5 construct: purchased DiscoveRx Corporation, San Diego (contract service, KINOMEscan)
T5 sequence (P48736 whole entry): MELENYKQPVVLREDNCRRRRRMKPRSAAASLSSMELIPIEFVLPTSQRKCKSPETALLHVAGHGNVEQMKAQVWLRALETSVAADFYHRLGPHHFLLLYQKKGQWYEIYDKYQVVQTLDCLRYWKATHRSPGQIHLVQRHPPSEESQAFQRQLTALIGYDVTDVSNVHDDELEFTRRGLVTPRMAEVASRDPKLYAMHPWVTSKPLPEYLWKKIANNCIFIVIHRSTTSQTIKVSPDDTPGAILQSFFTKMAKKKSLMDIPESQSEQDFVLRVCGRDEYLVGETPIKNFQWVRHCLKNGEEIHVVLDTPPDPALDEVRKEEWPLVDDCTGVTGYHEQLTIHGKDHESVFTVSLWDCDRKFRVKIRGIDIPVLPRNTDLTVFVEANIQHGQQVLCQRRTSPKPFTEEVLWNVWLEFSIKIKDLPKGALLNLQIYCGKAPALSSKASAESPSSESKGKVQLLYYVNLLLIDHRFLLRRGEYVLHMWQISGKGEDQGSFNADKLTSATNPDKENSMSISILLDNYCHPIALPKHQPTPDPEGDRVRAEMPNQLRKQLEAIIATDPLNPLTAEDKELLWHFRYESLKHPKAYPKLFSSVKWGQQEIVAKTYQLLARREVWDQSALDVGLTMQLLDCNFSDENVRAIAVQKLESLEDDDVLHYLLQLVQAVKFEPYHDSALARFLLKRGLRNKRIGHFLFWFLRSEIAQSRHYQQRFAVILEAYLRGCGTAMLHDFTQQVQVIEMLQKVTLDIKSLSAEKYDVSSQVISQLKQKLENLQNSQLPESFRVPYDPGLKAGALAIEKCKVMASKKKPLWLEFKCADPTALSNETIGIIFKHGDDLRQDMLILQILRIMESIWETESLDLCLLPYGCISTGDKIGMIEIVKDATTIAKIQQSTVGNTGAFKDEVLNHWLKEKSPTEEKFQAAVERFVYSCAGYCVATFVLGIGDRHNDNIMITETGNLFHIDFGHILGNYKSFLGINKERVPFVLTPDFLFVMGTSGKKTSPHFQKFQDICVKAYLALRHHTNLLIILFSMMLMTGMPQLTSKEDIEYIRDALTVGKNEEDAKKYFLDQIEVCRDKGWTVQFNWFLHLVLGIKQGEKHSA
Experimental: as §1, §2

[6] = system: Akt phosphorylated at Ser473 in PC-3 cells; test: Cellular assay: phosphorylation of Akt at Ser473 in PC-3 cells (MSD ELISA); format: cell-based; settings: PC-3 cells, 60 min compound incubation, MSD ELISA, read-out: IC50 pAkt_S473
Experimental: (§3) Cellular activity of PI3KP inhibitors was determined by quantifying the phosphorylation of Akt in PC-3 cells. Akt phosphorylated at Ser473 and Thr308 were measured using an enzyme-linked immunosorbent assay (ELISA; Meso Scale Discovery (MSD), Gaithersburg. Md.) and specific primary antibodies from MSD.
(§4) On day 2, compound or DMSO (0.3%) was added and cells were further incubated for 60 min at 37° C. 5% CO2 in a total volume of 100 μl of medium.
(§5) The phosphoprotein assay was executed according to vendor instructions in the Phospho-Akt (Ser473) Assay Whole Cell Lysate Kit (MSD # K15100D-3) and the Phospho-Akt (Thr308) Assay Whole Cell Lysate Kit (MSD # K151DYD-3) using the lysis, blocking and wash buffer provided.
(§6) Briefly, at the end of the cell treatment period, media were removed by aspiration and adherent cells were lysed in 50 μl ice-cold lysis buffer. MSD plates are supplied pre-coated with capture antibodies for Phospho-Akt (Ser473 and Thr308). After blocking, lysates from tissue culture plates were added and plates were washed. Then, a solution containing the detection antibody (anti-total Akt conjugated with an electrochemiluminescent compound-MSD Sulfo-tag label) was added. The signals were detected using an MSD SECTOR Imager 6000 and are proportional to the phospho-Akt titres.
(§7) Data were processed. […] From these concentration-response curves, the IC50 values were calculated. Five concentrations were used for curve fitting.

[7] = system: Akt phosphorylated at Thr308 in PC-3 cells; test: Cellular assay: phosphorylation of Akt at Thr308 in PC-3 cells (MSD ELISA); format: cell-based; settings: PC-3 cells, 60 min compound incubation, MSD ELISA, read-out: IC50 pAkt_Thr308
Experimental: as §3, §4, §5, §6, §7

[8] = PIK3Cβ_h, read-out: Kd PIK3Cβ_h

T1 sequence (P42338 whole entry): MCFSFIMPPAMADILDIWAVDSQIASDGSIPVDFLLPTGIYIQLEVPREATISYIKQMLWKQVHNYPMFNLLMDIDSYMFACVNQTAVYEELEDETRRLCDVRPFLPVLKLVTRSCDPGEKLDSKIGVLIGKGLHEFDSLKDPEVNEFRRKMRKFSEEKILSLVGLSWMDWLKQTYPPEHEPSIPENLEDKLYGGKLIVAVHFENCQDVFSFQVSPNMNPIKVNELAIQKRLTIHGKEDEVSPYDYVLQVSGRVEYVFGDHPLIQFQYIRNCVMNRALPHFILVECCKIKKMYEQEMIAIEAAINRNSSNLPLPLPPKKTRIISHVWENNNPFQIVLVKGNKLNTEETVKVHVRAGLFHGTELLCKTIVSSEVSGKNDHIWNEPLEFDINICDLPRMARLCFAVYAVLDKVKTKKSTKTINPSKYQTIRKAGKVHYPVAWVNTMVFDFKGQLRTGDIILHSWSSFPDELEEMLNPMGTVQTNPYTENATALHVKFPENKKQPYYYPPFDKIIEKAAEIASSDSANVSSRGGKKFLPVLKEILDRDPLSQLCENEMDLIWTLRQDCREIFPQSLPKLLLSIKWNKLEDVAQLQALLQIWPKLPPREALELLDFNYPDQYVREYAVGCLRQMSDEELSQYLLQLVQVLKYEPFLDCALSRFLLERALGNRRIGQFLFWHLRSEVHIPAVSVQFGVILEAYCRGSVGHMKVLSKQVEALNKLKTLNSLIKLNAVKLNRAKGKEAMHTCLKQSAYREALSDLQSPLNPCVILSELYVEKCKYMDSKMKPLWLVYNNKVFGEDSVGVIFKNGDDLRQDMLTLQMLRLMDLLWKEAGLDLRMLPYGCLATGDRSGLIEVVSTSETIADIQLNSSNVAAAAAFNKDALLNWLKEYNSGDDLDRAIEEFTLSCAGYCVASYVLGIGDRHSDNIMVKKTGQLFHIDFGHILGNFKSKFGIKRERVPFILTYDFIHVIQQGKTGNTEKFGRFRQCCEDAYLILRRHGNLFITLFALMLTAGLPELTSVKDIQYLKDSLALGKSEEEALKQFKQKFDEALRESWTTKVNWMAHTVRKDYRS

SMILES	Kd [1, 8] [µM]	Kd [2] [µM]	Kd [3] [µM]	Kd [4] [µM]	Kd [5] [µM]	IC50 [6] [µM]	IC50 ([6]; Homo sapiens, PC-3, 1 h) [µM]	IC50 ([7]; Homo sapiens, PC-3, 1 h) [µM]	Kd ([1]; Kd PIK3Cβ_h) [µM]	IC50 [7] [µM]	Kd ([1]; read-out: Kd PIK3Cβ_h) [µM]
O=C(NCCO)c1cc(N2CCC2c2ccc(F)cc2)c2nc(N3CCOCC3)cnc2c1 (single isomer, unassigned) [Compound 391a]	10.7	> 30.2	> 30.2	17	> 30.2	–	–	–	–	–	–
CN(Cc1cc(F)cc(F)c1)c1cc(C(=O)N2CCNC(C(F)(F)F)C2)cc2ncc(N3CCOCC3)nc12 (single isomer, unassigned) [Compound 319a]	0.2	2.82	9.12	> 30.2	> 30.2	–	–	–	–	–	–
COC(=O)c1cc(C(C)Nc2cc(F)cc(Cl)c2)c2nc(N3CCOCC3)cnc2c1 (stereo not shown) [Compound 264]	0.052	–	–	> 30.2	–	> 0.513	–	–	–	–	–
C[C@@H](Nc1cc(F)cc(F)c1)c1cc(C(=O)NCCN(C)C)cc2ncc(N3CCOCC3)nc12 [Compound 184a]	–	–	0.806	21.9	1.48	0.003	–	–	0.0001	0.002	–
CNCCNC(=O)c1cc(C(C)Oc2ccc(Cl)c(F)c2)c2nc(N3CCOCC3)cnc2c1 (stereo not shown) [Compound 380a]	1.05	7.24	9.12	19.1	–	–	–	–	–	–	–
C[C@@H](Nc1cccc(F)c1)c1cc(C(=O)NCCO)cc2ncc(N3CCOCC3)nc12 [Compound 117]	–	–	–	–	–	–	0.049	0.044	–	–	–
C[C@@H](Nc1cc(F)cc(F)c1)c1cc(C(=O)NCCN(C)C)cc2ncc(N3CCOCC3)nc12 [Compound 184b]	–	–	0.589	20	1.1	0.003	–	–	–	0.002	0.0001
O=C(c1cc(NCc2cc(F)cc(F)c2)c2nc(N3CCOCC3)cnc2c1)N1CCCNCC1 [Compound 351]	0.021	1.7	2.51	> 30.2	2.14	–	–	–	–	–	–
Cc1ccc(F)cc1CNc1cc(C(=O)NCCO)cc2ncc(N3CCOCC3)nc12 [Compound 343]	0.022	–	2.19	> 10	–	–	0.389	0.178	–	–	–
CN(C)C(=O)c1cc([C@@H]2CCCN2c2cc(F)cc(F)c2)c2nc(N3CCOCC3)cnc2c1 [Compound 2]	1.09	16.4	12.3	–	–	–	> 0.513	> 0.513	–	–	–
C[C@@H](Nc1cc(F)cc(F)c1)c1cc(C(=O)NCCN(C)C)cc2ncc(N3CCOCC3)nc12 [Compound 184c]	–	–	0.829	24	1.27	0.004	–	–	–	0.002	0.0001

More lines, in order of falling Kd [1, 8], values ahead:

Kd [1, 8] [µM]	Kd [2] [µM]	Kd [3] [µM]	Kd [4] [µM]	Kd [5] [µM]	IC50 [6] [µM]	IC50 ([6]; Homo sapiens, PC-3, 1 h) [µM]	IC50 ([7]; Homo sapiens, PC-3, 1 h) [µM]	SMILES	Kd ([1]; Kd PIK3Cβ_h) [µM]	IC50 [7] [µM]	Kd ([1]; read-out: Kd PIK3Cβ_h) [µM]
19.5	> 30.2	> 30.2	> 30.2	> 30.2	–	–	–	O=C(NCCO)c1cc(N2CCC2c2ccc(F)cc2)c2nc(N3CCOCC3)cnc2c1 (single isomer, unassigned) [Compound 391b]	–	–	–
1.91	–	26.3	> 30.2	6.46	0.059	–	–	CC(Nc1ccc(F)c(F)c1)c1cc(C(=O)NCCO)cc2ncc(N3CCOCC3)nc12 (single isomer, unassigned) [Compound 279b]	–	> 0.513	–
1.29	17	31.6	27.5	> 30.2	–	–	–	CC(Oc1ccc(F)c(F)c1)c1cc(C(=O)N2CC[C@H](N(C)C)C2)cc2ncc(N3CCOCC3)nc12 (single isomer, unassigned) [Compound 363b]	–	–	–
1.26	> 30.2	> 30.2	> 30.2	> 30.2	–	–	–	CNCCN(C)C(=O)c1cc(C(C)Oc2cc(F)c(F)c(F)c2)c2nc(N3CCOCC3)cnc2c1 (single isomer, unassigned) [Compound 379b]	–	–	–
0.933	> 30.2	> 30.2	> 30.2	> 30.2	–	–	–	CC(Nc1cc(F)c(F)c(F)c1)c1cc(C(=O)N2CCCN(C(C)C)CC2)cc2ncc(N3CCOCC3)nc12 (single isomer, unassigned) [Compound 388a]	–	–	–
0.537	23.4	24	> 30.2	> 30.2	–	–	–	CC(Nc1ccc(F)c(F)c1)c1cc(C(=O)N2CC[C@@H](O)C2)cc2ncc(N3CCOCC3)nc12 (single isomer, unassigned) [Compound 300b]	–	–	–
0.407	2.82	0.55	10.2	0.513	–	–	–	CN(Cc1cc(F)cc(F)c1)c1cc(C(=O)O)cc2ncc(N3CCOCC3)nc12 [Compound 291]	–	–	–
0.251	4.17	15.5	> 30.2	22.9	–	–	–	CN[C@H]1CCN(C(=O)c2cc(C(C)Nc3ccc(F)c(F)c3)c3nc(N4CCOCC4)cnc3c2)C1 (single isomer, unassigned) [Compound 365b]	–	–	–
0.078	3.24	16.6	> 30.2	22.4	–	–	–	CC(C)NCCN(C)C(=O)c1cc(N(C)Cc2cc(F)cc(F)c2)c2nc(N3CCOCC3)cnc2c1 [Compound 390]	–	–	–
0.009	1	3.8	16.6	26.9	–	–	–	CC(C)NCCNC(=O)c1cc(NCc2cc(F)cc(F)c2)c2nc(N3CCOCC3)cnc2c1 [Compound 342]	–	–	–
0.002	1	8.91	> 30.2	16.6	0.191	–	–	CC(C)NCCNC(=O)c1cc(C(C)Oc2cccc(F)c2)c2nc(N3CCOCC3)cnc2c1 (single isomer, unassigned) [Compound 314b]	–	–	–
0.002	0.355	6.03	> 30.2	16.2	–	–	–	CC(C)NCCNC(=O)c1cc(C(C)Oc2ccc(F)c(F)c2)c2nc(N3CCOCC3)cnc2c1 (single isomer, unassigned) [Compound 286b]	–	0.204	–
0.0003	0.032	0.126	> 30.2	0.912	0.001	–	–	CC(Nc1cc(F)cc(F)c1)c1cc(C(=O)N(C)CCN(C)C)cc2ncc(N3CCOCC3)nc12 (single isomer, unassigned) [Compound 182]	–	–	–
0.0003	0.11	1.86	> 30.2	1.95	–	–	0.02	CN[C@H]1CCN(C(=O)c2cc(C(C)Nc3cc(F)c(F)c(F)c3)c3nc(N4CCOCC4)cnc3c2)C1 (stereo partly shown) [Compound 297]	–	–	–
